# In ChEMBL document CHEMBL1687887, “Evolution of potent and stable placental-growth-factor-1-targeting CovX-bodies from phage display peptide discovery” (J Med Chem, 2011):
# Active and inactive are the calls of the source. The calls are words filed in the database; no cut-off is given here. Numbered stars: 1 amine (or outer) side, 2 acyl side, 3 side chain; on linkers, the order of the positions; unused ones are H or OH. Bridge positions count the residues as written; N and C are the ends. Square brackets hold non-standard residues; d marks the D form. Peptide text beside a SMILES is read from it. * marks the point of attachment. X2 = NCCCC[C@H](N[*:1])C(=O)NC(=O)COCC(=O)[*:2]; X1 = O=C(COCC(=O)*)Nc1ccc(CCC(=O)N2CCC2=O)cc1; X3 = O=C(CCc1ccc(N*)cc1)N1CCC1=O; NMeE = CN[C@@H](CCC(=O)O)C(=O)O; Aib = CC(C)(N)C(=O)O
# What was measured:
# Placenta growth factor [1] = biological target: T1, Placenta growth factor (Homo sapiens, UniProt P49763); experiment: Inhibition of human PlGF-1-VEGFR-1 interaction by ELISA
# T1 sequence (P49763 whole entry): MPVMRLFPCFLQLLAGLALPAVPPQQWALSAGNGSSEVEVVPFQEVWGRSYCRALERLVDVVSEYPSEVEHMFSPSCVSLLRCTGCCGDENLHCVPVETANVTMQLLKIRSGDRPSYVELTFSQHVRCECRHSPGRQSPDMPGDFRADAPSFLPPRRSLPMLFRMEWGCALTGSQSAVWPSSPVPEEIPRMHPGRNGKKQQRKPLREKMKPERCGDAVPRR
# Placenta growth factor [2] = biological target: T1, Placenta growth factor; experiment: Binding affinity to human PlGF-1; conditions: read-out: Kd
# [3] = Terminal half life in Swiss Webster mouse at 10 mg/kg, iv; format: ADME, organism-based; design: dose 10 mg/kg, route intravenous; conditions: in vivo, read-out: beta t1/2 (converted)
# Placenta growth factor [4] = biological target: T2, Placenta growth factor (Mus musculus, UniProt P49764); experiment: Binding affinity to mouse PlGF
# T2 sequence (P49764 whole entry): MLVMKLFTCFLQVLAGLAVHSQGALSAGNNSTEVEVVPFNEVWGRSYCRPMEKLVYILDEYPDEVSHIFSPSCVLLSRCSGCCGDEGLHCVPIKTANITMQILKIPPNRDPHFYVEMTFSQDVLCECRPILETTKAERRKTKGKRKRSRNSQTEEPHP
# [5] = Terminal half life in cynomolgus monkey at 10 mg/kg, iv; format: ADME, organism-based, Macaca fascicularis; design: dose 10 mg/kg, route intravenous; conditions: in vivo, read-out: beta t1/2 (converted)
# Placenta growth factor [6] = biological target: T1, Placenta growth factor; experiment: Binding affinity to human PlGF-2
# [7] = Stability of the compound in presence of cathepsin B; format: ADME
# [8] = biological target: T3, Placenta growth factor (Mus musculus) (UniProt P49764); experiment: Inhibition of mouse PlGF interaction with human VEGFR-1 by ELISA
# T3 sequence (whole entry): T2 sequence (P49764 whole entry)
# Placenta growth factor [9] = biological target: T1, Placenta growth factor; experiment: Inhibition of human PlGF-2-VEGFR-1 interaction by ELISA
# [10] = biological target: T3, Placenta growth factor (Mus musculus); experiment: (§1) Inhibition of mouse PlGF-VEGFR-1 interaction by ELISA
# [11] = Stability in Swiss Webster mouse serum assessed as functional compound remaining after 6 hrs; format: ADME, cell-free; conditions: read-out: Stability
# Placenta growth factor [12] = biological target: T2, Placenta growth factor; experiment: as §1
# [13] = biological target: T4, Placenta growth factor (Homo sapiens) (UniProt P49763); experiment: Binding affinity to human PlGF-2 by surface plasmon resonance study
# T4 sequence (whole entry): T1 sequence (P49763 whole entry)
# [14] = biological target: T4, Placenta growth factor (Homo sapiens); experiment: Binding affinity to human PlGF-1 by surface plasmon resonance study
Compound,IC50 (Placenta growth factor [1]) [nM],Kd (Placenta growth factor [2]) [nM],half-life [3] [h],remaining at 6 h [11] [%],IC50 (Placenta growth factor [12]) [nM],also measured
CC[C@H](C)[C@@H]1NC(=O)[C@H](Cc2ccc(O)cc2)NC(=O)[C@H](Cc2cnc[nH]2)NC(=O)[C@@H](NC(=O)[C@@H](NC(=O)[C@H](CCC(=O)O)N(C)C(=O)[C@H](Cc2ccccc2)NC(=O)[C@H](C)NC(=O)[C@H](C)NC(=O)[C@H](CC(=O)O)NC(=O)[C@H](C)NC(C)=O)C(C)C)CSSC[C@@H](C(=O)N[C@H](C(=O)N[C@@H](CCCNC(=N)N)C(=O)N[C@@H](Cc2ccc(O)cc2)C(N)=O)[C@@H](C)O)NC(=O)[C@H](Cc2cnc[nH]2)NC(=O)[C@@H]2CCCN2C(=O)[C@H](CC(C)C)NC(=O)[C@H](CCCCNC(=O)COCC(=O)Nc2ccc(CCC(=O)N3CCC3=O)cc2)NC1=O (Ac-ADAAF[NMeE]VCHYIK(X1)LPHCTRY-NH2; disulfide 8-16),3,8,24,–,–,–
CC[C@H](C)[C@@H]1NC(=O)[C@H](Cc2ccc(O)cc2)NC(=O)[C@H](Cc2cnc[nH]2)NC(=O)[C@@H](NC(=O)[C@@H](NC(=O)[C@H](CCC(=O)O)N(C)C(=O)[C@H](Cc2ccccc2)NC(=O)[C@H](C)NC(=O)[C@H](C)NC(=O)[C@H](CC(=O)O)NC(=O)[C@H](C)NC(C)=O)C(C)C)CSSC[C@@H](C(=O)N[C@H](C(=O)N[C@@H](CCCCNC(C)=O)C(=O)NC(C)(C)C(N)=O)[C@@H](C)O)NC(=O)[C@H](Cc2cnc[nH]2)NC(=O)C(C)(C)NC(=O)[C@H](CC(C)C)NC(=O)[C@H](CCCCNC(=O)COCC(=O)Nc2ccc(CCC(=O)N3CCC3=O)cc2)NC1=O (Ac-ADAAF[NMeE]VCHYIK(X1)L[Aib]HCTK(Ac)[Aib]-NH2; disulfide 8-16),0.4,0.1,75,–,–,Kd (Placenta growth factor [4]): 70 nM; half-life [5]: 78 h; Kd (Placenta growth factor [6]): 9 nM; Stability [7]: Stable
CC[C@H](C)[C@@H]1NC(=O)[C@H](Cc2ccc(O)cc2)NC(=O)[C@H](Cc2cnc[nH]2)NC(=O)[C@@H](NC(=O)[C@@H](NC(=O)[C@H](CCC(=O)O)NC(=O)[C@H](Cc2ccccc2)NC(=O)[C@H](C)NC(=O)[C@H](C)NC(=O)[C@H](CC(=O)O)NC(C)=O)C(C)C)CSSC[C@@H](C(=O)N[C@H](C(=O)N[C@@H](CCCN=C(N)N)C(=O)N[C@@H](Cc2ccc(O)cc2)C(N)=O)[C@@H](C)O)NC(=O)[C@H](Cc2cnc[nH]2)NC(=O)[C@@H]2CCCN2C(=O)[C@H](CC(C)C)NC(=O)[C@H](CCCCNC(=O)COCC(=O)Nc2ccc(CCC(=O)N3CCC3=O)cc2)NC1=O (Ac-DAAFEVCHYIK(X1)LPHCTRY-NH2; disulfide 7-15),1,0.3,14,–,–,–
CSCC[C@H](NC(=O)[C@@H](NC(=O)[C@H](CCCCN)NC(=O)[C@@H]1CSSC[C@H](NC(=O)[C@@H](NC(=O)[C@H](CC(=O)O)NC(=O)[C@H](Cc2ccccc2)NC(C)=O)C(C)C)C(=O)N[C@@H](CCCCN)C(=O)N[C@@H](Cc2c[nH]c3ccccc23)C(=O)N[C@@H](C(C)C)C(=O)N[C@@H]([C@@H](C)O)C(=O)N[C@@H](CC(C)C)C(=O)N2CCC[C@H]2C(=O)N[C@@H](Cc2cnc[nH]2)C(=O)N1)C(C)C)C(=O)N[C@@H](CCCCN)C(=O)NC(=O)COCC(=O)Nc1ccc(CCC(=O)N2CCC2=O)cc1 (Ac-FDVCKWVTLPHCKVM[X2]-X3; disulfide 4-12),2,4,–,–,–,Kd (Placenta growth factor [4]): 400 nM; Kd (Placenta growth factor [6]): 100 nM; inhibition [8]: inactive; IC50 (Placenta growth factor [9]): 150 nM; inhibition [10]: inactive
CSCC[C@H](NC(=O)[C@@H](NC(=O)[C@H](CCCCNC(C)=O)NC(=O)[C@@H]1CSSC[C@H](NC(=O)[C@@H](NC(=O)[C@H](CC(=O)O)NC(=O)[C@H](Cc2ccccc2)NC(C)=O)C(C)C)C(=O)N[C@@H](CC(N)=O)C(=O)N[C@@H](Cc2c[nH]c3ccccc23)C(=O)N[C@@H](C(C)C)C(=O)N[C@@H](CCCCNC(=O)COCC(=O)Nc2ccc(CCC(=O)N3CCC3=O)cc2)C(=O)N[C@@H](CC(C)C)C(=O)N2CCC[C@H]2C(=O)N[C@@H](Cc2cnc[nH]2)C(=O)N1)C(C)C)C(N)=O (Ac-FDVCNWVK(X1)LPHCK(Ac)VM-NH2; disulfide 4-12),–,9,–,20,4,–
CSCC[C@H](NC(=O)[C@H](CCCCNC(=O)COCC(=O)Nc1ccc(CCC(=O)N2CCC2=O)cc1)NC(=O)[C@H](CCCCNC(C)=O)NC(=O)[C@@H]1CSSC[C@H](NC(=O)[C@@H](NC(=O)[C@H](CC(=O)O)NC(=O)[C@H](Cc2ccccc2)NC(C)=O)C(C)C)C(=O)N[C@@H](CC(N)=O)C(=O)N[C@@H](Cc2c[nH]c3ccccc23)C(=O)N[C@@H](C(C)C)C(=O)N[C@@H]([C@@H](C)O)C(=O)N[C@@H](CC(C)C)C(=O)N2CCC[C@H]2C(=O)N[C@@H](Cc2cnc[nH]2)C(=O)N1)C(N)=O (Ac-FDVCNWVTLPHCK(Ac)K(X1)M-NH2; disulfide 4-12),4,5,–,< 5,4,Activity [13]: Active; Activity [14]: Active
CSCC[C@H](NC(=O)[C@@H](NC(=O)[C@H](CCCCNC(=O)COCC(=O)Nc1ccc(CCC(=O)N2CCC2=O)cc1)NC(=O)[C@@H]1CSSC[C@H](NC(=O)[C@@H](NC(=O)[C@H](CC(=O)O)NC(=O)[C@H](Cc2ccccc2)NC(C)=O)C(C)C)C(=O)N[C@@H](CC(N)=O)C(=O)N[C@@H](Cc2c[nH]c3ccccc23)C(=O)N[C@@H](C(C)C)C(=O)N[C@@H]([C@@H](C)O)C(=O)N[C@@H](CC(C)C)C(=O)N2CCC[C@H]2C(=O)N[C@@H](Cc2cnc[nH]2)C(=O)N1)C(C)C)C(N)=O (Ac-FDVCNWVTLPHCK(X1)VM-NH2; disulfide 4-12),–,4,–,11,54,–
